Source: paper PMC9574860, “Chemical Toolkit for PARK7: Potent, Selective, and High-Throughput” (Journal of Medicinal Chemistry, 2022)

What was measured:
[1] = biological target: T1, PARK7 (Homo sapiens, UniProt Q99497); test: FP assay with Rhodamine110 probe JYQ-107 (IC50 and hit validation); assay type: binding; parameters: GST (N, cleaved yes); made in house; host or cells: E. coli BL21(DE3) Rosetta2; settings: increasing concentrations, 60 min preincubation; Figure S7
T1 sequence (Q99497 1-189): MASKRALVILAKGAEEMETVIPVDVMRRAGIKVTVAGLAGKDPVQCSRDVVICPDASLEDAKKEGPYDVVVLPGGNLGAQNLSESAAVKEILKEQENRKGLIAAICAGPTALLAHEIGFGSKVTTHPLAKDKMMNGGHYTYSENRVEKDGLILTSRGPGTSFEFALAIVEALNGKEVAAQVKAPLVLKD
Procedure: The assay was performed using the conditions as described above with a reaction volume of 20 μL per well in triplicate. Stock solutions of JYQ-88 of 1 and 0.1 mM were prepared. […] The FP signal was monitored with a BMG Labtech PHERAstar plate reader (λex/em 480/520 nm) for 2 h.
The validation was performed using the conditions as described above with a reaction volume of 20 μL per well in triplicate. […] The FP signal was monitored with a BMG Labtech PHERAstar plate reader (λex/em 480/520 nm) for 2 h. The relative loss of FP signal compared with reference controls was used to calculate the remaining enzyme activity. Inhibition percentage of these 40 compounds was plotted as a heatmap using GraphPad Prism 9.0.1 software. Color gradients indicate inhibition percentage, no inhibiton (white) and full inhibition (blue).

[2] = biological target: T1, PARK7; test: Gel-based competition assay with probe 8RK59, PARK7 band; assay type: biochemical; parameters: GST (N, cleaved yes); made in house; host or cells: E. coli BL21(DE3) Rosetta2; settings: compound 2 μM, 1 h; PARK7 and UCHL1 1 μM each; then 8RK59 2 μM 30 min; Figure 3B
Procedure: (§1) To assess the inhibitory potency and selectivity of these compounds toward PARK7 and UCHL1, we performed a gel-based competition assay (Figure 3A).[36] A mixture of equal amounts of PARK7 and UCHL1 (1 μM) was treated with each of the synthesized compounds (2 μM) for 1 h, followed by incubation with fluorescent probe 8RK59 (2 μM) for 30 min. Samples were resolved by SDS-PAGE, and the gel was scanned for fluorescence. Inhibition of PARK7 or UCHL1 is reflected by the disappearance of their corresponding bands (Figure 3B). […] The inhibition potential of JYQ-88 against PARK7 was assessed in a similar assay where PARK7 was incubated with a serial dilution of JYQ-88 before treatment with probe 8RK59 (Figure 3C). A clear inhibition is visible at 0.5 μM, and full inhibition is achieved between 1 and 2 μM. […] The selectivity of JYQ-88 between UCHL1 and PARK7 was further confirmed in a direct competition assay between equal amounts of PARK7 and UCHL1 (Figure 3F). PARK7 inhibition was observed starting from 0.5 μM JYQ-88, whereas inhibition of UCHL1 was only detected at 20 μM. Since JYQ-88 and 8RK64 are enantiomers, we assumed that the interactions with PARK7 should be similar. To investigate how the chiral center influences the selectivity, we solved the crystal structure of the PARK7−JYQ-88 complex with 1.42 Å resolution (Figure 3G, Table S1, PDB 7PA3). The global positioning of the inhibitor in between the two α-helices was similar to that for 8RK64. […] This way, the thiazolo-pyridine part of JYQ-88 is bound in a similar manner as 8RK64 and the earlier observed interactions are largely the same. The formation of the isothiourea moiety, stabilized by the interaction with Glu18, and the interaction between the thiazole amine and the amide NH2 of the Asn76 side chain are still present. However, the interaction between the azidoacetyl carbonyl with the Leu128 backbone carbonyl can no longer be observed due to the rotation of the azidoacetyl moiety. The Lys132 residue also seems to have rotated (compared to Figure 2C).
(§2) The assay was performed in Tris buffer as described above.

[3] = biological target: T2, UCHL1 (Homo sapiens, UniProt P09936); test: Gel-based competition assay with probe 8RK59, UCHL1 band; assay type: biochemical; settings: compound 2 μM, 1 h; PARK7 and UCHL1 1 μM each; then 8RK59 2 μM 30 min; Figure 3B
T2 sequence (P09936 1-223): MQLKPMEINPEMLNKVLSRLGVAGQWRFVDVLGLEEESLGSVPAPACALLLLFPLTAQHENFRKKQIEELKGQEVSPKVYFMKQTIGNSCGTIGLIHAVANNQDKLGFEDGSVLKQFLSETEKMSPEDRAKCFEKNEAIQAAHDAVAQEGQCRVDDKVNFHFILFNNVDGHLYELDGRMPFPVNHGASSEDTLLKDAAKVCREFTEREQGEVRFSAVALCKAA
Procedure: as §1, §2

[4] = biological target: T2, UCHL1; test: UCHL1 activity assay (Ub-Rho-Morpholine or Ub-AMC substrate); assay type: biochemical; settings: UCHL1 1 nM, 1 h preincubation; read-out: UbRhoMP assay UCHL1 IC50
Procedure: The assay was performed in a buffer containing 50 mM Tris·HCl, 100 mM NaCl at pH 7.5, 2.0 mM cysteine, 1 mg/mL 3-[(3-cholamidopropyl)dimethylammonio]propanesulfonic acid (CHAPS), and 0.5 mg/mL bovine serum albumin and conducted in a 384-well plate (Corning 3820) with a reaction volume 20 μL in triplicate. The compounds were dissolved in DMSO as 10, 1, and 0.1 mM stock solutions and were transferred to obtain a 12-point serial dilution of 0.05 to 200 μM. Next, UCHL1 (15 μL, final concentration of 1 nM) was dispensed with a Biotek MultiFlowFX liquid dispenser and incubated for 1 h, followed by dispensing the substrate Ub-Rho-Morpholine or Ub-AMC (5 μL, final concentration of 400 nM). The FI signal was monitored with a BMG Labtech PHERAstar plate reader (λex/em 487/535 nm or λex/em 350/450 nm) for 1 h. N-Ethylmaleimide (NEM, 10 mM) was used as a positive control (100% inhibition), and DMSO was used as a negative control (0% inhibition). All samples were normalized to the positive and negative controls and plotted against the inhibitor concentrations (in μM) using the built-in equation “[inhibitor] vs response – variable slope (four parameters), least-squares fit” with constraints “Bottom = 0” and “Top = 100” in GraphPad Prism 9.0.1 software to obtain the IC50 values.

[5] = biological target: T1, PARK7; test: Probe labeling of purified recombinant PARK7 (SDS-PAGE, fluorescence scanning); assay type: binding; parameters: GST (N, cleaved yes); made in house; host or cells: E. coli BL21(DE3) Rosetta2; settings: purified PARK7 1 μM, 1 h 37 °C; Figure 4A
Excerpt: PARK7 inhibitor JYQ-88 was further converted into activity-based probes by installing SulfoCy5, Rhodamine110, or BodipyFL. We took advantage of the azide moiety in JYQ-88 and conjugated alkyne versions of these dyes using the copper(I)-catalyzed azide alkyne cycloaddition (CuAAC) to obtain compounds JYQ-92, JYQ-93, and JYQ-107 (Scheme 2). We next investigated the ability of the probes to label and visualize PARK7. […] The SulfoCy5 probe JYQ-92 and Rhodamine110 probe JYQ-107 labeled PARK7 already at 1 μM, while the BodipyFL probe JYQ-93 was less efficient than the other probes as PARK7 labeling was only observed from 5 μM.
All the labeling assays were performed in Tris buffer (50 mM Tris–HCl, 150 mM NaCl, 2 mM TCEP, pH 7.5). For labeling with the 8RK59 probe, 1 μM final concentrations of UCHL1 and PARK7 were individually or together incubated with 2 μM final concentrations of 8RK59 for 30 min at 37 °C, followed by protein visualization. For labeling with JYQ-92, JYQ-93, and JYQ-107, 1 μM final concentration of PARK7 was incubated with different concentrations (0, 0.1, 0.5, 1, 2, 5, and 10 μM) of the indicated probes for 1 h at 37 °C. […] These samples were resolved by SDS-PAGE using precast Bis-Tris gels (Invitrogen, NuPAGE) with MES SDS running buffer (Novex, NuPAGE).

[6] = biological target: T1, PARK7; test: High-throughput FP screen of covalent fragment library with JYQ-107; assay type: binding; parameters: GST (N, cleaved yes); made in house; host or cells: E. coli BL21(DE3) Rosetta2; settings: HTS, 100 μM compound, PARK7 0.2 μM, 2 h preincubation, JYQ-107 20 nM, 1536-well
Procedure: The screen was conducted using the conditions as described above in 1536-well plates (Corning 3724) with a reaction volume of 8 μL per well. The compound library containing 7887 covalent fragments was purchased at Enamine Ltd. and received as 100 mM DMSO stocks in 384 well LDV Echo plates (Labcyte LP-0200). Stock solutions of 0.26 μM PARK7 and 80 nM JYQ-107 were prepared. Using a Labcyte Echo550 acoustic dispenser, 8 nL of the DMSO stock solution of the library compounds was transferred from the source plates into the empty 1536-well screening plates to obtain a 100 μM final compound concentration. Next, PARK7 (6 μL, final concentration 0.2 μM) was dispensed using a Biotek MultiflowFX liquid dispenser and incubated for 2 h, followed by dispensing the probe JYQ-107 (2 μL, final concentration 20 nM). After 2 h incubation, the FP signal was recorded on a BMG Labtech PHERAstar plate reader (λex/em 480/520 nm). The relative loss of FP signal compared with reference controls was used to calculate the remaining enzyme activity.

| Inhibition of PARK7 (disappearance of 8RK59-labeled band) [2] | Inhibition of UCHL1 (disappearance of 8RK59-labeled band) [3] | Inhibition % [6] [%] | Compound | other results |
| --- | --- | --- | --- | --- |
| hardly show any inhibition | hardly show any inhibition |  | N#CN1CC[C@H](C(=O)Nc2nc3c(s2)CN(C(=O)c2cn(CC4CCCO4)nn2)CC3)C1 (stereo partly drawn) [JYQ-55, (3S)-1-Cyano-N-(5-(1-((tetrahydrofuran-2-yl)methyl)-1H-1,2,3-triazole-4-carbonyl)-4,5,6,7-tetrahydrothiazolo[5,4-c]pyridin-2-yl)pyrrolidine-3-carboxamide] | Inhibition of PARK7 in FP assay [1]: no inhibition |
| less efficiently | fully inhibit |  | N#CN1CC[C@H](C(=O)Nc2nc3c(s2)CN(C(=O)Cc2ccncc2)CC3)C1 [JYQ-76, (S)-1-Cyano-N-(5-(2-(pyridin-4-yl)acetyl)-4,5,6,7-tetrahydrothiazolo[5,4-c]pyridin-2-yl)pyrrolidine-3-carboxamide] |  |
| hardly show any inhibition | hardly show any inhibition |  | N#CN1CC[C@H](C(=O)Nc2nc3c(s2)CN(C(=O)c2ccc(Br)cc2)CC3)C1 [JYQ-77, (S)-N-(5-(4-Bromobenzoyl)-4,5,6,7-tetrahydrothiazolo[5,4-c]pyridin-2-yl)-1-cyanopyrrolidine-3-carboxamide] |  |
| less efficiently | fully inhibit |  | N#CN1CC[C@H](C(=O)Nc2nc3c(s2)CN(C(=O)CCCCBr)CC3)C1 [JYQ-78, (S)-N-(5-(5-Bromopentanoyl)-4,5,6,7-tetrahydrothiazolo[5,4-c]pyridin-2-yl)-1-cyanopyrrolidine-3-carboxamide] |  |
| less efficiently | fully inhibit |  | CN1C(=O)CC(C(=O)N2CCc3nc(NC(=O)[C@H]4CCN(C#N)C4)sc3C2)[C@@H]1c1cccnc1 (stereo partly drawn) [JYQ-79, (3S)-1-Cyano-N-(5-((2R)-1-methyl-5-oxo-2-(pyridin-3-yl)pyrrolidine-3-carbonyl)-4,5,6,7-tetrahydrothiazolo[5,4-c]pyridin-2-yl)pyrrolidine-3-carboxamide] |  |
|  |  |  | CC1=CC(C)=[N+]2C1=C(CCCCc1cn(CC(=O)N3CCc4nc(NC(=O)[C@@H]5CCN(C#N)C5)sc4C3)nn1)c1c(C)cc(C)n1[B-]2(F)F [JYQ-93] | IC50 [4]: 23 µM; Probe concentration from which PARK7 labeling was observed [5]: 5 µM |
|  |  | 1.56 | O=C(NC1CCN(Cc2ccccc2)CC1)n1ccnc1 [Z319217184, N-(1-benzylpiperidin-4-yl)-1H-imidazole-1-carboxamide] |  |
|  |  | 1.97 | CC1(C)CN(C(=O)CC2OCCCO2)CC2(CCCC2)O1 [Z1953185127, 1-{7,7-dimethyl-6-oxa-9-azaspiro[4.5]decan-9-yl}-2-(1,3-dioxan-2-yl)ethan-1-one] |  |
|  |  | -0.36 | NCC1CCN(C(=O)C=Cc2ccc(Cl)s2)C1 (centres unmarked) [Z2242910917, 1-[3-(aminomethyl)pyrrolidin-1-yl]-3-(5-chlorothiophen-2-yl)prop-2-en-1-one] |  |
|  |  | 1.76 | C#CC(=O)N1CCc2cc(C(=O)O)ccc21 [Z3227873366, 1-(prop-2-ynoyl)-2,3-dihydro-1H-indole-5-carboxylic acid] |  |
|  |  | -0.97 | N#CC=Cc1cccc2cccnc12 [Z3236183481, 3-(quinolin-8-yl)prop-2-enenitrile] |  |
| hardly show any inhibition | hardly show any inhibition |  | (3S)-N-(5-((1S,2R,5R)-Adamantane-2-carbonyl)-4,5,6,7-tetrahydrothiazolo[5,4-c]pyridin-2-yl)-1-cyanopyrrolidine-3-carboxamide [JYQ-83] |  |
